Measurements as given in publication PMC10584882 (Communications Biology, 2023).
“And” between values parts separate entries of the source, which are not always exact repeats. Equal values may be shown once.

Key:
human CatV = molecular target: T1, human CatV (Homo sapiens, UniProt O60911); assay: Cathepsin inhibition test, CatV; assay type: biochemical; details: Fig. S3 panel c, single replicates
T1 construct: made in house

VERO-CCL81 cells = assay: Cell viability assay (CellTiter-Glo), VERO-CCL81; assay type: cell-based; details: for Cell viability (% control): VERO CCL81, 72 h, replicates of experiments 1 and 2
Experimental: VERO-CCL81 was seeded in 96-well plates at a density of 1.5×10^4 cells/well, while LC-HK2 was seeded at a density of 3×10^4 cells/well, following 24 h incubation at 37 °C and 5% CO2 atmosphere. The cell culture media was replaced by serial dilutions of the compounds and the cell viability was determined 72 h post-treatment via CellTiter-Glo® Luminescent Cell Viability Assay (Promega), following the manufacturer’s instructions. Luminescent signal was recorded using a CLARIOstar multi-mode microplate reader (BMG Labtech, Germany). Graphs were generated using GraphPad Prism software version 8.0 (La Jolla, CA, USA, www.graphpad.com). Samples deemed to be technical failures and extreme outlier were removed.

SARS-CoV-2 = assay: Viral loading determination via RT-qPCR in LC-HK2 cells; assay type: cell-based; details: for Viral titer (% control): LC-HK2, RT-qPCR
human CatK = molecular target: T2, human CatK (Homo sapiens, UniProt P43235); assay: Cathepsin inhibition test, CatK; assay type: biochemical; details: for Residual activity (Vi/V0): Fig. S3 panel a, single replicates
T2 construct: made in house
T2 sequence (P43235 115-329): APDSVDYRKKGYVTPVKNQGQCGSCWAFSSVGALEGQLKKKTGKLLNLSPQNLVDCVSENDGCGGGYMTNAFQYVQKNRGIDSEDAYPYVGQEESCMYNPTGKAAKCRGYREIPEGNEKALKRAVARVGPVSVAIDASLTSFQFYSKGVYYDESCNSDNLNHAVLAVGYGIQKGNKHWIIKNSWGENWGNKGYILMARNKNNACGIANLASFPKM

[1] = inhibitor 0.105 nM, 0.000105 µM
[2] = inhibitor 0.189 nM, 0.000189 µM
[3] = inhibitor 0.612 nM, 0.000612 µM
[4] = inhibitor 1.103 nM, 0.001103 µM
[5] = inhibitor 1.985 nM, 0.001985 µM
[6] = inhibitor 3.572 nM, 0.003572 µM
[7] = inhibitor 11.547 nM, 0.011547 µM

T1 sequence (O60911 114-334): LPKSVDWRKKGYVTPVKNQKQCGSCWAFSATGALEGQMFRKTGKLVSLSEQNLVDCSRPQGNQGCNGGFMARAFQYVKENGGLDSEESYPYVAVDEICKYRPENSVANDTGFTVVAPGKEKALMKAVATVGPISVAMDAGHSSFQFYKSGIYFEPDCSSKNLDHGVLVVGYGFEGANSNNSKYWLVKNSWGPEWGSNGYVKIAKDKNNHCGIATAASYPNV

CCCC[C@H](NC(=O)[C@H](CC(C)C)NC(=O)OCc1ccccc1)C(O)S(=O)(=O)[O-].[Na+] (some centres unmarked) [S-Calpeptin]
Residual activity (Vi/V0) (human CatV; inhibitor 0.010 nM, 10 pM): 0.8982 and 0.9438 and 1.016 and 0.9432 and 0.9838 and 0.9734 and 1.009 and 0.9925
Residual activity (Vi/V0) (human CatV; inhibitor 0.018 nM, 18 pM): 0.7063 and 0.8048 and 0.9697 and 0.9452 and 0.965 and 0.9273 and 1.044 and 0.9905
Residual activity (Vi/V0) (human CatV; inhibitor 0.032 nM, 32 pM): 0.4743 and 0.664 and 0.9379 and 0.8845 and 0.8627 and 0.9319 and 1.237 and 0.91
Residual activity (Vi/V0) (human CatV; inhibitor 0.058 nM, 58 pM): 0.01132 and 0.01674 and 0.9458 and 0.6877 and 0.9713 and 0.8348 and 1.1467 and 0.7642
Residual activity (Vi/V0) (human CatV; [1]): 0.5008 and 0.5002 and 0.8948 and 0.8318 and 0.8983 and 0.7019 and 1.143 and 0.6207
Residual activity (Vi/V0) (human CatV; [2]): 0.2447 and 0.2374 and 0.7712 and 0.7606 and 0.8108 and 0.5224 and 1.02 and 0.4249
Residual activity (Vi/V0) (human CatV; inhibitor 0.340 nM, 0.00034 µM): 0.1518 and 0.1386 and 0.6304 and 0.6112 and 0.6332 and 0.3803 and 0.6867 and 0.2117
Residual activity (Vi/V0) (human CatV; [3]): 0.103 and 0.1097 and 0.4478 and 0.4871 and 0.5442 and 0.179 and 0.3919 and 0.1269
Residual activity (Vi/V0) (human CatV; [4]): 0.05798 and 0.06049 and 0.2946 and 0.2993 and 0.3554 and 0.1895 and 0.2004 and 0.05784
Residual activity (Vi/V0) (human CatV; [5]): 0.03342 and 0.03103 and 0.1055 and 0.1184 and 0.07678 and 0.1061 and 0.06687 and 0.038
Residual activity (Vi/V0) (human CatV; [6]): 0.01297 and 0.01099 and 0.0386 and 0.03676 and 0.03768 and 0.02078 and 0.03085 and 0.02157
Residual activity (Vi/V0) (human CatV; inhibitor 6.430 nM, 0.00643 µM): 0.008943 and 0.006591 and 0.009607 and 0.008666 and 0.01717 and 0.01084 and 0.01202 and 0.007959
Residual activity (Vi/V0) (human CatV; [7]): 0.003173 and 0.004275 and 0.001602 and 0.001011
Cell viability (% control) (VERO-CCL81 cells; 0.0781 μM): 99.91 % control and 99.99 % control and 93.43 % control
Cell viability (% control) (VERO-CCL81 cells; 0.1563 μM): 101.27 % control and 99.33 % control and 91.02 % control
Cell viability (% control) (VERO-CCL81 cells; 0.3125 μM): 98.12 % control and 96.79 % control and 88.9 % control and 104.51 % control and 93.11 % control and 88.49 % control
Cell viability (% control) (VERO-CCL81 cells; 0.625 μM): 102.02 % control and 99.32 % control and 91.53 % control and 106.07 % control and 99.18 % control and 92.52 % control
Cell viability (% control) (VERO-CCL81 cells; 1.25 μM): 101.8 % control and 101.21 % control and 92.78 % control and 102.28 % control and 98.11 % control and 94.97 % control
Cell viability (% control) (VERO-CCL81 cells; 2.5 μM): 103.7 % control and 100.66 % control and 93.92 % control and 107.86 % control and 99.28 % control and 84.04 % control
Cell viability (% control) (VERO-CCL81 cells; 5 μM): 103.66 % control and 103.11 % control and 94.78 % control and 109.88 % control and 106.46 % control and 91.66 % control
Cell viability (% control) (VERO-CCL81 cells; 10 μM): 95.16 % control and 96.86 % control and 93.25 % control and 107.42 % control and 101.38 % control and 83.78 % control
cytotoxicity (in words) (VERO-CCL81 cells; VERO-CCL81, 72 h): no cytotoxicity up to low micromolar concentrations
EC50 (SARS-CoV-2; LC-HK2, RT-qPCR, 72 h post-infection, read-out: Viral titer EC50): 630 nM
Viral titer (% control) (SARS-CoV-2; 0.0006 μM): 100 % control
Viral titer (% control) (SARS-CoV-2; 0.0012 μM): 100 % control
Viral titer (% control) (SARS-CoV-2; 0.0024 μM): 100 % control
Viral titer (% control) (SARS-CoV-2; 0.0049 μM): 100 % control
Viral titer (% control) (SARS-CoV-2; 0.0098 μM): 100 % control
Viral titer (% control) (SARS-CoV-2; 0.0195 μM): 100 % control
Viral titer (% control) (SARS-CoV-2; 0.0391 μM): 100 % control
Viral titer (% control) (SARS-CoV-2; 0.0781 μM): 100 % control
Viral titer (% control) (SARS-CoV-2; 0.1563 μM): 100 % control
Viral titer (% control) (SARS-CoV-2; 0.3125 μM, listed as S-Calpepin): 56.49 % control and 49.6 % control
Viral titer (% control) (SARS-CoV-2; 0.625 μM, listed as S-Calpepin): 69.04 % control and 44.94 % control
Viral titer (% control) (SARS-CoV-2; 1.25 μM, listed as S-Calpepin): 38.67 % control and 33.45 % control
Viral titer (% control) (SARS-CoV-2; 2.5 μM, listed as S-Calpepin): 33.13 % control and 30.16 % control
Viral titer (% control) (SARS-CoV-2; 100 μM): 0 % control
Residual activity (Vi/V0) (human CatK; inhibitor 0.010 nM, 10 pM): 1.028 and 1.067 and 0.9629 and 0.9414 and 0.9225
Residual activity (Vi/V0) (human CatK; inhibitor 0.018 nM, 18 pM): 1.062 and 1.238 and 0.9724 and 0.8624 and 0.8684
Residual activity (Vi/V0) (human CatK; inhibitor 0.032 nM, 32 pM): 0.9319 and 1.215 and 0.8238 and 0.889 and 0.8605
Residual activity (Vi/V0) (human CatK; inhibitor 0.058 nM, 58 pM): 0.7562 and 0.8292 and 0.7671
Residual activity (Vi/V0) (human CatK; [1]): 1.104 and 0.8757 and 0.7581 and 0.6636 and 0.6847
Residual activity (Vi/V0) (human CatK; [2]): 0.6363 and 0.7129 and 0.6855 and 0.6137 and 0.6926
Residual activity (Vi/V0) (human CatK; inhibitor 0.340 nM, 0.00034 µM): 0.4419 and 0.3556 and 0.547 and 0.5599 and 0.6191
Residual activity (Vi/V0) (human CatK; [3]): 0.562 and 0.5894 and 0.4634 and 0.3938 and 0.3707
Residual activity (Vi/V0) (human CatK; [4]): 0.4683 and 0.4274 and 0.3853 and 0.3355 and 0.2949
Residual activity (Vi/V0) (human CatK; [5]): 0.2888 and 0.2948 and 0.2332 and 0.2265 and 0.1772
Residual activity (Vi/V0) (human CatK; [6]): 0.2021 and 0.2433 and 0.1658 and 0.1472 and 0.1161
Residual activity (Vi/V0) (human CatK; inhibitor 6.430 nM, 0.00643 µM): 0.1399 and 0.09741 and 0.09721 and 0.03496
Residual activity (Vi/V0) (human CatK; [7]): 0.01107 and 0.1108 and 0.1149 and 0.0689 and 0.02957
Residual activity (Vi/V0) (human CatK; inhibitor 20.833 nM, 0.020833 µM): 0.08599 and -0.06715 and 0.04731 and 0.03845 and 0.01885
Residual activity (Vi/V0) (human CatK; inhibitor 37.500 nM, 0.0375 µM): -0.05695 and -0.1347 and 0.027 and 0.005377 and -0.00068
Ki (human CatK; mean with standard deviation and 95% confidence interval, pH 5.5, 37 °C): 0.05 nM
